Assay results taken from patent US8084424B2, “Compositions and methods related to erythropoietin” (University of Utah Research Foundation, priority 2003, dated 2011).
Where a SMILES comes first, the peptide text is derived from it. [ ]: non-standard residue; d: D form. The star is where a group is joined. Sta = CC(C)C[C@H](N)[C@@H](O)CC(=O)O; Isovaleryl = CC(C)CC(=O)*

How the values were obtained:
proteases = test: Protease inhibitor test: EPO degradation in concentrated medium at pH5.0, assayed by RIA; assay type: biochemical; conditions: pH5.0, 37° C.
Procedure: Protease inhibitors can also be added to the conditioned medium in order to improve EPO yields. Several commercially available protease inhibitors were tested to see if they could prevent EPO degradation at pH5.0. 10× concentrated (Step 1) EPO medium was diluted 1:10 in 50 mM Na Acetate, pH5.0 and then incubated at 37° C. with or without protease inhibitors at a concentration of 5 micrograms/ml. Aliquots were taken over a period of 29 hours and assayed by RIA. […] Pepstatin was then tested to determine the minimum concentration at which it is effective. Under the same conditions as described above, pepstatin was included into 10× concentrated medium over range of 0.0005 to 1 ug/ml and incubated at 37° C. for 25 hours. […] To test the effect of pepstatin in the purification process, 0.2 ug/ml of pepstatin was added to the 10× concentrated medium and to the buffers for the S-Sepharose column. Under these conditions, 97% of EPO was recovered from the S-Sepharose Fast Flow column compared to approximately 60% without the use of a protease inhibitor.

[1] = Aggregation and ionisation of Poly-D-glutamic acid in solution; assay type: physicochemical; conditions: 10 mg/ml, solution at pH≦6
Text: (§1) The mechanism of Poly-D-Glu-induced acute lysosomal storage condition in proximal tubular cells was addressed.

[2] = system: lysosomal enzymes (hexoseaminidase, cathepsin B, acid sphigomyelinase, and sulfatase B); test: Lysosomal enzyme activities in kidney cortex after injection; assay type: in vivo, rat; conditions: one day after injection, not acid phosphatase
Text: as §1

interstitial cells = test: Interstitial cell proliferation in rat kidney (3H-thymidine histoautoradiography, hematoxylin and eosin staining); assay type: in vivo
Procedure: Sprague-Dawley rats of both sexes, weighing from 180 to 200 g, were used throughout the study. A few days before the experiment, rats were adapted to the housing conditions in a central animal facility (regular 12 hours light/dark cycles, free access to standard rat chow and tap water). […] For histoautoradiographic studies, some treated animals and controls were further injected with 300 μCi of [methyl-^3H]-thymidine intraperitoneally 1 hour before their deaths.
One half of the right kidney was immersed in Boulin solution and processed for paraffin sections (approximately 5-μm thickness) destined for histopathologic and/or histoautoradiographic study. For histopathologic use, sections were stained with hematoxylin and eosin with or without periodic acid-Schiff reagent or with Giemsa stain. Histoautoradiographic studies were performed and the data were presented as described earlier (Kishore et al., 1992; Laurent et al., 1983). Briefly each section was examined along parallel straight lines, extending from the subcapsular to the juxtamedullary region. The number of total and labeled nuclei (S-phase cells) were counted, and the corresponding cell type was identified.
Histoautoradiographic labeling indices were subjected to ANOVA, and the significance of the F value was determined. […]

erythropoietin = test: Immunohistochemical staining of kidney sections for erythropoietin; assay type: in vivo, rat; conditions: for erythropoietin staining of proliferating interstitial cells: 250 mg/kg/day sc for 4 days, euthanized on day 5; for EPO-producing peritubular cells after cessation of treatment: 6 days after the cessation of a 4-day treatment, 250 mg/kg/day
Procedure: Male Sprague-Dawley rats were divided randomly into two groups. […] Kidneys were harvested quickly from the dead rats and one half of one kidney was immersed in 10% neutral buffered formalin. The formalin fixed kidneys were dehydrated and embedded in paraffin. Sections of 3 to 4 μM thickness were cut on a microtome. Sections were deparaffinized by standard methods and processed for immunohistochemical staining for CD73 (5′-nucleotidase) and erythropoietin (Epo) as described below.
Deparaffinized kidney sections were treated for exposure of antigenic sites and blocked for non-specific binding by standard methods. Following this they were incubated with specific antibodies to CD 73 (marker for resident fibroblasts in kidney) or Epo. Goat polyclonal antibodies to CD73 and Epo were purchased from the Santa Cruz Biotechnology, Santa Cruz, Calif. They were used at a dilution of 1:50. After washing off the unreacted primary antibodies, the sections were incubated with biotinylated anti-goat polyclonal antibody (secondary antibody), followed by incubation with avidin-biotin complex. Sections were then washed and incubated with substrate to visualize the antigen-antibody reactions. Positive labeling in the sections is seen as brownish color. […] Sections were examined under a Reichert Microscope and digital images were captured using a Nikon Coolpix 0995 Digital Camera.

renal cortex = test: Angiogenesis in the renal cortex; assay type: in vivo; conditions: treated rat kidney
kidney = test: Renal histology: apoptosis, Trichrome staining for fibrosis, Vimetin immunostaining
Text: The immunohistochemical methods are standard and routinely used in many research and clinical labs.

[3] = 24 hour urine volume and urine osmolality; conditions: pre versus post treatment, versus saline

Molecule	effect on EPO immunoactivity (proteases; 5 micrograms/ml, over 29 hours, RIA)	IC50 (the concentration at which 50% of the proteases are inhibited) (proteases; 10× concentrated medium, 25 hours, range 0.0005 to 1 ug/ml)	size of micronic aggregates formed [1] [μm]	activities of several lysosomal enzymes in the kidney cortex [2]	significant proliferative response of peritubular cells (3H-thymidine incorporation) (interstitial cells; 7 days after the cessation of treatment, earlier studies)	interstitial cell labeling (3H-thymidine) (interstitial cells; female rats treated for 2 days, versus saline)	erythropoietin staining of proliferating interstitial cells (erythropoietin; listed as Poly-D-Glu)	erythropoietin staining of proliferating interstitial cells (erythropoietin; listed as poly-D-glutamic acid)	EPO-producing peritubular cells after cessation of treatment (erythropoietin)	EPO-producing peritubular cells after cessation of treatment (erythropoietin; listed as Poly-D-Glu)	angiogenesis in the renal cortex (renal cortex)	mesenchymal changes (Vimetin immunostaining) (kidney; rat, in vivo)	fibrotic changes in the kidney (Trichrome staining) (kidney; versus saline)	ability of kidneys to concentrate urine as assessed by urine osmolality [3]
CC(C)CC(=O)N[C@H](C(=O)N[C@H](C(=O)N[C@@H](CC(C)C)[C@@H](O)CC(=O)N[C@@H](C)C(=O)N[C@@H](CC(C)C)[C@@H](O)CC(=O)O)C(C)C)C(C)C [Pepstatin] (Isovaleryl-VV[Sta]A[Sta]-OH)	significant stabilizing effect	approximately 0.02 ug/ml	–	–	–	–	–	–	–	–	–	–	–	–
Poly-D-glutamic acid	–	–	≥ 10	increased	could not be observed	considerably increased	labeled with EPO antibody	strongly stain	persistence	consistent labeling	angiogenesis	detectable mesenchymal changes	not much fibrotic reaction	does not cause marked abnormalities
